PubChem BioAssay AID1963826 (Molecular Pharmacology Branch, DTP, NCI, 2024)
pIC50: −log10 of the molar value.

Tested on: 926638-142-R-J1-PDC complex spheroid viability
Experiment: Anticancer human tumor 926638-142-R-J1-PDC patient-derived endometrial carcinoma cell line growth inhibition [POLQ]
Conditions: for pIC50: curve of first compound; for viability, T/C: stronger effect = lower value
Protocol: Multicellular complex tumor spheroid response to Polymerase (POL) inhibitors (novobiocin, ART-558, RP6685) in combination with a variety of drugs and investigational agents in selected tumor cell lines
The POL inhibitors (novobiocin, ART-558, and RP6685) were evaluated both individually and in combination with standard of care and investigational anticancer small molecules within a complex spheroid model of solid tumors. . Complex spheroids include a stromal component modeled by human endothelial cells (HUVEC) and fibroblasts modeled by human mesenchymal stem cells (MSCs). The concentration ranges selected for each drug and investigational agent were based upon clinically achievable concentrations if the clinical Cmax of the agent was known.
Compounds. The drugs and investigational agents: novobiocin (NSC847541), ART-558 (NSC835418), RP-6685 (NSC848927), peposertib (NSC802822), ceralasertib (NSC780249), elimusertib (NSC800525), camonsertib (NSC841442), AZD-1390 (NSC803789), olaparib (NSC753686), talazoparib (NSC767125), rucaparib (NSC756644), sotorasib (NSC818433), MRTX-1133 (NSC836407), SN-38 (NSC673596), topotecan (NSC609699), epotoside (NSC141540), doxorubicin (NSC123127), gemcitabine (NSC613327), 5-fluorouracil (NSC19893), paclitaxel (NSC125973), vemurafenib (NSC761431), MSA-2 (NSC828583), SN-011 (NSC837082), adavosertib (NSC754352), prexasertib (NSC758257), carboplatin (NSC241240) and oxaliplatin (NSC266046), were obtained from the National Cancer Institute (NCI) Developmental Therapeutics Program Chemical Repository (21). The FDA-approved anticancer drug set is available from the Developmental Therapeutics Program at https://dtp.cancer.gov/organization/dscb/obtaining/. […] The stock solutions were prepared in dimethyl sulfoxide (DMSO, Sigma-Aldrich, St. Louis, MO, cat. D2650), except for the platinum compounds which were prepared in saline (Quality Biological, Gaithersburg, MD, cat. 114-055-101), at 800-fold the tested concentration and stored at -70 degrees C prior to their use. All drugs and investigational agents were tested over a range starting from a high concentration at or near the clinical Cmax and decreasing in half-log increments. If the clinical Cmax for an agent had not been determined, the highest concentration tested was 10 microM, except for SN-38, which was tested at a high concentration of 1 microM.
Cell Culture. All cells were maintained in an incubator at 37 degrees C and 5% CO2 with 95% humidity. The PDC lines were cultured according to standard operating procedures established by the NCI PDMR (https://pdmr.cancer.gov). Table 3 of the manuscript, lists the cell lines along with the number of the three cell types plated to form the mct-spheroids and media for tumor cell growth. After thawing, all PDC lines, except 997537-175-T-J1-PDC and 415267-285-R-J2-PDC, were cultured in Matrigel-coated flasks prepared with a working solution of 1X Ham's F-12 nutrient mix, without supplementation (Thermo Fisher Scientific, cat. 11765054), 100 U/mL penicillin-streptomycin (Thermo Fisher Scientific, cat. 15140122), and 2.5% Matrigel (Corning Inc., Corning, NY, cat. 354248) for the first three passages. The two PDC lines 997537-175-T-J1-PDC and 415267-285-R-J2-PDC were cultured on uncoated flasks. The 857933-349-R-J2-PDC line was cultured in 6C/Colon 1B media containing advanced DMEM/F-12 (Thermo Fisher Scientific, cat. 12634028), 10 mM HEPES (Thermo Fisher Scientific, cat. 15630080), 1X GlutaMAX supplement (Thermo Fisher Scientific, cat. 35050061), 0.1 mg/mL primocin (InvivoGen, San Diego, CA, cat. ant-pm-2), 10% defined fetal bovine serum, heat inactivated (HyClone Laboratories Inc., Logan, UT, cat. SH30070.03HI), 50% L-WRN conditioned media (ATCC, cat. CRL-3276), 1.25 mM N-Acetyl-L-cysteine (Sigma-Aldrich, cat. A9165), 10 mM nicotinamide (Sigma-Aldrich, cat. N0636), 1X B-27 supplement (Thermo Fisher Scientific, cat. 17504044), 1X N-2 supplement (Thermo Fisher Scientific, cat. […]

[1] = second compound 0.0316 µM, first compound 0.0316 µM
[2] = second compound 0.0316 µM, first compound 0.1 µM
[3] = second compound 0.0316 µM, first compound 0.316 µM
[4] = second compound 0.0316 µM, first compound 1 µM
[5] = second compound 0.0316 µM, first compound 3.16 µM
[6] = second compound 0.0316 µM, first compound 10 µM
[7] = second compound 0.1 µM, first compound 0.0316 µM
[8] = second compound 0.1 µM, first compound 0.1 µM
[9] = second compound 0.1 µM, first compound 0.316 µM
[10] = second compound 0.1 µM, first compound 1 µM
[11] = second compound 0.1 µM, first compound 3.16 µM
[12] = second compound 0.1 µM, first compound 10 µM
[13] = second compound 0.316 µM, first compound 0.0316 µM
[14] = second compound 0.316 µM, first compound 0.1 µM
[15] = second compound 0.316 µM, first compound 0.316 µM
[16] = second compound 0.316 µM, first compound 1 µM
[17] = second compound 0.316 µM, first compound 3.16 µM
[18] = second compound 0.316 µM, first compound 10 µM
[19] = second compound 1 µM, first compound 0.0316 µM
[20] = second compound 1 µM, first compound 0.1 µM
[21] = second compound 1 µM, first compound 0.316 µM
[22] = second compound 1 µM, first compound 1 µM
[23] = second compound 1 µM, first compound 3.16 µM
[24] = second compound 1 µM, first compound 10 µM
[25] = second compound 3.16 µM, first compound 0.0316 µM
[26] = second compound 3.16 µM, first compound 0.1 µM
[27] = second compound 3.16 µM, first compound 0.316 µM
[28] = second compound 3.16 µM, first compound 1 µM
[29] = second compound 3.16 µM, first compound 3.16 µM
[30] = second compound 3.16 µM, first compound 10 µM
[31] = second compound 10 µM, first compound 0.0316 µM
[32] = second compound 10 µM, first compound 0.1 µM
[33] = second compound 10 µM, first compound 0.316 µM
[34] = second compound 10 µM, first compound 1 µM
[35] = second compound 10 µM, first compound 3.16 µM
[36] = second compound 10 µM, first compound 10 µM
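Also: spheroids exposed to drugs for one week before readout.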
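For viability, T/C in this document: percent viability relative to DMSO vehicle control wells set as 100%.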

## C=CC(=O)N1CCN(c2nc(=O)n(-c3c(C)ccnc3C(C)C)c3nc(-c4c(O)cccc4F)c(F)cc23)C(C)C1 (centres undefined) + Nc1ccc(C#CCN(C(=O)Cc2ncc(C(F)(F)F)cc2C(F)(F)F)c2ccc(F)cc2)nn1
Second compound 0.0316 µM
  pIC50: < 5.00
Second compound 0.1 µM
  pIC50: < 5.00
Second compound 0.316 µM
  pIC50: < 5.00
Second compound 1 µM
  pIC50: < 5.00
Second compound 3.16 µM
  pIC50: < 5.00
Second compound 10 µM
  pIC50: < 5.00
[1]
  viability, T/C: 93.4%
[2]
  viability, T/C: 106%
[3]
  viability, T/C: 98.1%
[4]
  viability, T/C: 92.5%
[5]
  viability, T/C: 88.4%
[6]
  viability, T/C: 52.5%
[7]
  viability, T/C: 107%
[8]
  viability, T/C: 103%
[9]
  viability, T/C: 93.2%
[10]
  viability, T/C: 86.6%
[11]
  viability, T/C: 87.8%
[12]
  viability, T/C: 55.8%
[13]
  viability, T/C: 108%
[14]
  viability, T/C: 91%
[15]
  viability, T/C: 79.8%
[16]
  viability, T/C: 90.1%
[17]
  viability, T/C: 86.4%
[18]
  viability, T/C: 53%
[19]
  viability, T/C: 106%
[20]
  viability, T/C: 86.8%
[21]
  viability, T/C: 94.6%
[22]
  viability, T/C: 82.3%
[23]
  viability, T/C: 85.1%
[24]
  viability, T/C: 53.5%
[25]
  viability, T/C: 93%
[26]
  viability, T/C: 99.7%
[27]
  viability, T/C: 89.5%
[28]
  viability, T/C: 93.6%
[29]
  viability, T/C: 73.8%
[30]
  viability, T/C: 53.8%
[31]
  viability, T/C: 94.4%
[32]
  viability, T/C: 98.5%
[33]
  viability, T/C: 78.2%
[34]
  viability, T/C: 78.7%
[35]
  viability, T/C: 87%
[36]
  viability, T/C: 60.4%

## CC1COCCN1c1cc(-c2ccnn2C)c2ccnc(-c3ccn[nH]3)c2n1 (centres undefined) + Nc1ccc(C#CCN(C(=O)Cc2ncc(C(F)(F)F)cc2C(F)(F)F)c2ccc(F)cc2)nn1
Second compound 0.0316 µM
  pIC50: 6.30
Second compound 0.1 µM
  pIC50: 6.41
Second compound 0.316 µM
  pIC50: 6.42
Second compound 1 µM
  pIC50: 6.55
Second compound 3.16 µM
  pIC50: 6.45
Second compound 10 µM
  pIC50: 6.43
[1]
  viability, T/C: 101%
[2]
  viability, T/C: 83.7%
[3]
  viability, T/C: 60.3%
[4]
  viability, T/C: 36.7%
[5]
  viability, T/C: 14%
[6]
  viability, T/C: 9.34%
[7]
  viability, T/C: 108%
[8]
  viability, T/C: 85.9%
[9]
  viability, T/C: 50.5%
[10]
  viability, T/C: 33.7%
[11]
  viability, T/C: 14.1%
[12]
  viability, T/C: 9.21%
[13]
  viability, T/C: 104%
[14]
  viability, T/C: 84.7%
[15]
  viability, T/C: 54.5%
[16]
  viability, T/C: 26.7%
[17]
  viability, T/C: 16.8%
[18]
  viability, T/C: 10.1%
[19]
  viability, T/C: 99.7%
[20]
  viability, T/C: 69.6%
[21]
  viability, T/C: 51.7%
[22]
  viability, T/C: 27.5%
[23]
  viability, T/C: 14.3%
[24]
  viability, T/C: 9.7%
[25]
  viability, T/C: 89.8%
[26]
  viability, T/C: 73.6%
[27]
  viability, T/C: 53.9%
[28]
  viability, T/C: 28.6%
[29]
  viability, T/C: 16.7%
[30]
  viability, T/C: 8.56%
[31]
  viability, T/C: 73.3%
[32]
  viability, T/C: 74.5%
[33]
  viability, T/C: 52.5%
[34]
  viability, T/C: 25.7%
[35]
  viability, T/C: 15.1%
[36]
  viability, T/C: 9.63%
